The target of test [1] is T1, PKC-α (Rattus norvegicus, UniProt P05696).
T1 construct: Cell lysates from either IMR-32 (human neuroblastoma) cells or C6Cx43 cells; endogenous in cells; host or cells: C6Cx43 (rat glioma transfected with connexin 43)
The test can be described thus: In vitro competition with anti-PKC-α antibody on blotted cell lysate, Protocol A, C6Cx43 cells. The test is classed as binding. The method, then:
(§1) The ability of the peptides to interfere with the binding of a PKC-α-specific monoclonal antibody to PKC-α was determined using the following protocol.
(§2) Cell lysates from either IMR-32 (human neuroblastoma) cells or C6Cx43 cells (rat glioma transfected cells overexpressing connexin 43) were obtained using standard protocols and the proteins of the lysate were separated by SDS PAGE electrophoresis and electrotransferred onto a nitrocellulose membrane. […] A primary polyclonal antibody specific for PKC-α (Santa Cruz Biotechnology, Inc., CA) was then added (15 μg/ml) and the membrane incubated for a further 45 minutes. Finally, the primary antibody was detected with a secondary antibody conjugated to alkaline phosphatase using standard procedures. The intensity of the band corresponding to PKC-α was assessed by scanning and densitometry using the Gel-Pro software (Media Cybernetics) to obtain relative band intensities (average of 3 replicas). Control assays were conducted as described above except that blocking buffer without peptide was used.
(§3) The results are expressed as relative band intensity and as a percentage of the intensity of the corresponding band in the control assay (“Relative intensity (%)”). “% inhibition” relates to the percentage of the PKC-α band that is inaccessible to the antibody.

Test [2] addresses T2, PKC-α (Homo sapiens, UniProt P17252). The test can be described thus: In vitro competition with anti-PKC-α antibody on blotted cell lysate, Protocol A, IMR-32 cells. Format: binding. The arrangement: subcellular localisation of endogenous PKC-α in IMR-32 cells; endogenous in cells; host or cells: IMR-32. On the procedure:
as §1, §2, §3

In the next test the test system is PKC-β. Description: In vitro competition with anti-PKC-β antibody, Protocol B, IMR-32 cells. The test is classed as binding, human. Conditions: PKC-β, IMR-32, Table 8. On the procedure:
The ability of the peptides PRE 2 and PRE 3 (see Table 3) to interfere with the binding of a PKC-α-specific polyclonal antibody (Santa Cruz Biotechnology, Inc.) to PKC-α was determined using a modified version of the protocol outlined above in which the test peptide was added directly to the cell extract prior to electrophoresis at a concentration of either 5× or 15× the concentration of the protein applied to each well of the gel for the Western blots (20 μg).
Peptides PRE 2 and PRE 3 (see Table 3) were tested for their ability to interfere with the binding of a PKC-β-specific polyclonal antibody (Santa Cruz Biotechnology, Inc.) to PKC-β using the general protocol described in Example 3.

The target of test [3] is T2, PKC-α. Description: Kinase-Glo Luminescent Kinase Assay, substrate myelin basic protein. Format: biochemical. The conditions noted are these: for inhibition at 150 µM: PRE 4 150 μM; for inhibition at 300 µM: PRE 4 300 μM; for inhibition at 600 µM: PRE 4 600 μM. The method, then: The ability of peptide PRE 4 (see Table 3) to inhibit the activity of PKC-α was tested using increasing concentrations of PRE 4 and the Kinase-Glo™ Luminescent Kinase Assay (Promega, Cat # V6712/3/4) following the manufacturer's instructions. Briefly, the assay is based on the Luciferase luminescent reaction with ATP. The substrate was myelin basic protein (MBP, a classical substrate of the PKC family). ATP was added to the PKC-α reaction solution at a given concentration and the remaining ATP was measured by luminescence. Luminescence of blank solutions, ATP provided at the beginning of the reaction and PKC-α activity in the presence or absence of PRE 4 were measured.
Blanks are subtracted from all values.
ATP remaining in all reactions was subtracted from the ATP values at the start=relative enzyme activity (Ea).
The relative activities were all measured and the Ea in the presence of PRE 4 are reported relative to the Ea of PKC-α alone taken as 100. The difference between 100 and the % Ea of PKC-α exposed to PRE 4 represents the relative level of inhibition.

[4] abbreviates: 75 μg peptide, IMR-32, Protocol A, Table 4.
[5] abbreviates: 300 μg peptide, IMR-32, Protocol A, Table 4.

Ac-AKGIQEVKGGDAQNLIGISI-NH2 [PRE 3]: the “Band Intensity” value on PKC-α [1] (75 μg, Table 5) was determined as 0.909; at PKC-α [1] (300 μg, Table 5), 0.888; at PKC-α [1] (600 μg, Table 5), 0.889; at PKC-α [1] (3.75 mg, Table 5), 0.603; at PKC-α [1] (5.25 mg, Table 5), 0.599; on PKC-α [1] (7.5 mg, Table 5), 0.589. Also, the “Band Intensity” value is reported as 0.889 on PKC-α [2] (75 μg, IMR-32 Cells, Table 5); 0.922 on PKC-α [2] (300 μg, IMR-32 Cells, Table 5); 0.888 on PKC-α [2] (600 μg, IMR-32 Cells, Table 5); 0.600 at PKC-α [2] (3.75 mg, IMR-32 Cells, Table 5); 0.603 at PKC-α [2] (5.25 mg, IMR-32 Cells, Table 5); 0.609 at PKC-α [2] (7.5 mg, IMR-32 Cells, Table 5). Also, the “Band Intensity” value in the test on PKC-β (100 μg), with PKC-β (200 μg) and with PKC-β (300 μg) was 0.0 each time. Besides, the inhibition at 0.075 mg is 0% on PKC-α [1] (75 μg, Table 5) and 0.7% on PKC-α [2] (75 μg, IMR-32 Cells, Table 5). Further, the remaining activity at 0.075 mg was determined as 98% at PKC-α [1] (75 μg, Table 5, read-out: Relative Intensity (%)) and 99.3% at PKC-α [2] (75 μg, IMR-32 Cells, Table 5, read-out: Relative Intensity (%)). The inhibition at 0.3 mg turned out to be 0% at PKC-α [1] (300 μg, Table 5) and 0% on PKC-α [2] (300 μg, IMR-32 Cells, Table 5). For the same substance, the remaining activity at 0.3 mg at PKC-α [1] (300 μg, Table 5, read-out: Relative Intensity (%)) is 95.8%; on PKC-α [2] (300 μg, IMR-32 Cells, Table 5, read-out: Relative Intensity (%)), 103%. The inhibition at 0.6 mg on PKC-α [1] (600 μg, Table 5) amounted to 0%; on PKC-α [2] (600 μg, IMR-32 Cells, Table 5) it was 0%. Also, the remaining activity at 0.6 mg on PKC-α [1] (600 μg, Table 5, read-out: Relative Intensity (%)) was determined as 95.9%; on PKC-α [2] (600 μg, IMR-32 Cells, Table 5, read-out: Relative Intensity (%)) it was 99.2%. In addition, the remaining activity at 3.75 mg stood at 105% at PKC-α [1] (3.75 mg, Table 5, read-out: Relative Intensity (%)) and 102% on PKC-α [2] (3.75 mg, IMR-32 Cells, Table 5, read-out: Relative Intensity (%)). Besides, the remaining activity at 5.25 mg is 105% at PKC-α [1] (5.25 mg, Table 5, read-out: Relative Intensity (%)) and 102% at PKC-α [2] (5.25 mg, IMR-32 Cells, Table 5, read-out: Relative Intensity (%)). The inhibition at 7.5 mg at PKC-α [1] (7.5 mg, Table 5) was determined as 0%; at PKC-α [2] (7.5 mg, IMR-32 Cells, Table 5), 0%. Also, the remaining activity at 7.5 mg is 103% at PKC-α [1] (7.5 mg, Table 5, read-out: Relative Intensity (%)) and 103% at PKC-α [2] (7.5 mg, IMR-32 Cells, Table 5, read-out: Relative Intensity (%)). Besides, the “effect on antibody binding to PKC-α” value at PKC-α [2] (Protocol A) is reported as “did not show an effect on antibody binding”. The “Inhibition (%)” value with PKC-β (100 μg), in the test with PKC-β (200 μg) and in the test with PKC-β (300 μg) was 100.0% each time. Also, the “Relative Intensity (%)” value with PKC-β (100 μg), in the test with PKC-β (200 μg) and in the test with PKC-β (300 μg) was 0.0% in each case.
Turning to “Ac-KDAQNLIGISI-NH2 [PRE 4, Ac-KDAQNLIGISI-NH2]”, at PKC-α [3] (Experiment 1), at 150 µM the inhibition was 6.15%, the inhibition at 300 µM was 9.76% and the inhibition at 600 µM turned out to be 16.4%. At PKC-α [3] (Experiment 2), this substance gave an inhibition at 150 µM of 28.9%, an inhibition at 300 µM of 40.7% and an inhibition at 600 µM of 53.5%. At PKC-α [3] (Experiment 3), the inhibition at 150 µM came out at 40.1%, the inhibition at 300 µM was 35.5% and the inhibition at 600 µM turned out to be 41.6%.
In the case of RRKKGGKDFVVKR [PRE 1], in the test with PKC-α [2] (setting [4]), the “Band Intensity” value came out at 1.040, the “Inhibition (%)” value is listed as 50.2% and the “Relative Intensity (%)” value was 49.8%. In the test with PKC-α [2] (setting [5]), the “Band Intensity” value was determined as 0.771, the “Inhibition (%)” value turned out to be 63.1% and the “Relative Intensity (%)” value is listed as 36.9%. In the test with PKC-α [2] (Protocol A), the “effect on antibody binding to PKC-α” value is “mask the antigenic site of PKC-α”.

Values taken from patent US20100041597A1, “PEPTIDES TARGETED TO PROTEIN KINASE C ISOFORMS AND USES THEREOF” (priority 2005, published 2010).
